Results reported in patent US6737383B1, “Herbicidal oxadiazolidines” (priority 1999, dated 2004).

How the values were obtained:
blackgrass = experiment: Test B pre/postemergence blackgrass; format: in vivo, Alopecurus myosuroides
Summary of the method: (§1)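 Herbicidal effect was estimated by eye on a ten-point control scale after plants spent twelve to sixteen days in a greenhouse following soil or foliar treatment. Foliar sprays targeted plants at one to four leaves; all doses were formulated in a non-phytotoxic solvent with surfactant.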

velvetleaf = experiment: Test B pre/postemergence velvetleaf; format: in vivo, Abutilon theophrasti
Summary of the method: as §1

morningglory = experiment: Test B pre/postemergence morningglory; format: in vivo, Ipomoea hederacea
Summary of the method: as §1

rice = experiment: Test B flood test rice; format: in vivo, Oryza sativa
Summary of the method: (§2)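 Read-out is a visual response score from 0 (no effect) to 10 (complete control), assigned by comparison with untreated controls. Treatment was applied at the 2-leaf stage, and plants stayed in the greenhouse for twelve to sixteen days before scoring.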

pigweed = experiment: Test B pre/postemergence pigweed; format: in vivo, Amaranthus retroflexus
Summary of the method: as §1

bamyardgrass = experiment: Test B flood test barnyardgrass; format: in vivo, Echinochloa crus-galli
Summary of the method: as §2

sugar beet = experiment: Test B pre/postemergence sugar beet; format: in vivo, Beta vulgaris
Summary of the method: as §1

duck salad = experiment: Test B flood test duck salad; format: in vivo, Heteranthera limosa
Summary of the method: as §2

bedstraw = experiment: Test B pre/postemergence bedstraw; format: in vivo, Galium aparine
Summary of the method: as §1

giant foxtail = experiment: Test B pre/postemergence giant foxtail; format: in vivo, Setaria faberii
Summary of the method: as §1

purple nutsedge = experiment: Test B pre/postemergence purple nutsedge; format: in vivo, Cyperus rotundus
Summary of the method: as §1

soybean = experiment: Test B pre/postemergence soybean; format: in vivo, Glycine max
Summary of the method: as §1

surinam grass = experiment: Test B pre/postemergence surinam grass; format: in vivo, Brachiaria decumbens
Summary of the method: as §1

corn = experiment: Test B pre/postemergence corn; format: in vivo, Zea mays
Summary of the method: as §1

rape = experiment: Test B pre/postemergence rape; format: in vivo, Brassica napus
Summary of the method: as §1

smallflower flatsedge = experiment: Test B flood test smallflower flatsedge; format: in vivo, Cyperus difformis
Summary of the method: as §2

[1] = Postemergence, Rate 62 g/ha, scale 0 to 10, 0 is no effect, 10 is complete control
[2] = Postemergence, Rate 250 g/ha, scale 0 to 10, 0 no effect, 10 complete control
[3] = Preemergence, Rate 62 g/ha, scale 0 to 10, 0 is no effect, 10 is complete control
[4] = Preemergence, Rate 125 g/ha, scale 0 to 10 (0 no effect, 10 complete control)
[5] = Preemergence, Rate 250 g/ha, scale of 0 to 10 where 0 is no effect and 10 is complete control
[6] = Preemergence, Rate 500 g/ha, scale 0 (no effect) to 10 (complete control)
[7] = Rate 125 g/ha, Postemergence, scale 0 to 10, 0 no effect, 10 complete control
[8] = Rate 500 g/ha, Postemergence, 0 to 10 scale (0 no effect, 10 complete control)
[9] = Rate 125 g/ha, Postemergence section (flood test species), scale 0 to 10, 0 no effect, 10 complete control
[10] = Rate 500 g/ha, Postemergence section of Table B, 0 to 10 scale (0 no effect, 10 complete control)
[11] = flood test, listed under Postemergence, Rate 250 g/ha, scale 0 to 10, 0 no effect, 10 complete control
[12] = Preemergence, Rate 31 g/ha, visual rating, scale 0 to 10 (0 no effect, 10 complete control)
[13] = Rate 31 g/ha, Postemergence, scale 0 to 10

Cc1ccccc1-n1c(=O)on(C(=O)N(c2ccc(F)cc2F)C(C)C)c1=O [Compound 25]
Blackgrass plant response rating (blackgrass; [1]): 4
Blackgrass plant response rating (blackgrass; [2]): 6
Plant response rating, Blackgrass (blackgrass; [3]): 3
Plant response rating, Blackgrass (blackgrass; [4]): 3
Plant response rating, Blackgrass (blackgrass; [5]): 8
Blackgrass plant response rating (blackgrass; [6]): 8
Blackgrass plant response rating (blackgrass; [7]): 5
Blackgrass plant response rating (blackgrass; [8]): 7
Velvetleaf plant response rating (velvetleaf; [1]): 0
Velvetleaf plant response rating (velvetleaf; [2]): 0
Plant response rating, Velvetleaf (velvetleaf; [3]): 0
Plant response rating, Velvetleaf (velvetleaf; [4]): 0
Plant response rating, Velvetleaf (velvetleaf; [5]): 0
Velvetleaf plant response rating (velvetleaf; [6]): 0
Velvetleaf plant response rating (velvetleaf; [7]): 0
Morningglory plant response rating (morningglory; [1]): 1
Morningglory plant response rating (morningglory; [2]): 2
Plant response rating, Morningglory (morningglory; [3]): 0
Plant response rating, Morningglory (morningglory; [4]): 0
Plant response rating, Morningglory (morningglory; [5]): 0
Morningglory plant response rating (morningglory; [6]): 0
Morningglory plant response rating (morningglory; [7]): 1
Morningglory plant response rating (morningglory; [8]): 2
Rice plant response rating (rice; [1]): 0
Rice plant response rating (rice; [9]): 0
Rice plant response rating (rice; [10]): 3
Rice plant response rating (rice; [11]): 0
Redroot pigweed plant response rating (pigweed; [1]): 0
Redroot pigweed plant response rating (pigweed; [2]): 0
Plant response rating, Redroot pigweed (pigweed; [3]): 0
Plant response rating, Redroot pigweed (pigweed; [4]): 0
Plant response rating, Redroot pigweed (pigweed; [5]): 8
Redroot pigweed plant response rating (pigweed; [6]): 8
Redroot pigweed plant response rating (pigweed; [7]): 0
Redroot pigweed plant response rating (pigweed; [8]): 4
Barnyardgrass plant response rating (bamyardgrass; [1]): 0
Barnyardgrass plant response rating (bamyardgrass; [9]): 0
Barnyardgrass plant response rating (bamyardgrass; [10]): 8
Barnyardgrass plant response rating (bamyardgrass; [11]): 0
Sugarbeets plant response rating (sugar beet; [1]): 0
Sugarbeets plant response rating (sugar beet; [2]): 0
Plant response rating, Sugarbeets (sugar beet; [3]): 0
Plant response rating, Sugarbeets (sugar beet; [4]): 0
Plant response rating, Sugarbeets (sugar beet; [5]): 0
Sugarbeets plant response rating (sugar beet; [6]): 2
Sugarbeets plant response rating (sugar beet; [7]): 0
Ducksalad plant response rating (duck salad; [1]): 0
Ducksalad plant response rating (duck salad; [9]): 0
Ducksalad plant response rating (duck salad; [10]): 0
Ducksalad plant response rating (duck salad; [11]): 0
Bedstraw plant response rating (bedstraw; [1]): 4
Bedstraw plant response rating (bedstraw; [2]): 7
Plant response rating, Bedstraw (bedstraw; [3]): 0
Plant response rating, Bedstraw (bedstraw; [4]): 0
Plant response rating, Bedstraw (bedstraw; [5]): 0
Bedstraw plant response rating (bedstraw; [6]): 3
Bedstraw plant response rating (bedstraw; [7]): 4
Bedstraw plant response rating (bedstraw; [8]): 7
Giant foxtail plant response rating (giant foxtail; [1]): 3
Giant foxtail plant response rating (giant foxtail; [2]): 8
Plant response rating, Giant foxtail (giant foxtail; [3]): 5
Plant response rating, Giant foxtail (giant foxtail; [4]): 7
Plant response rating, Giant foxtail (giant foxtail; [5]): 10
Giant foxtail plant response rating (giant foxtail; [6]): 10
Giant foxtail plant response rating (giant foxtail; [7]): 5
Giant foxtail plant response rating (giant foxtail; [8]): 8
Nutsedge plant response rating (purple nutsedge; [1]): 0
Nutsedge plant response rating (purple nutsedge; [2]): 0
Plant response rating, Nutsedge (purple nutsedge; [3]): 0
Plant response rating, Nutsedge (purple nutsedge; [4]): 0
Plant response rating, Nutsedge (purple nutsedge; [5]): 0
Nutsedge plant response rating (purple nutsedge; [6]): 0
Nutsedge plant response rating (purple nutsedge; [7]): 0
Soybean plant response rating (soybean; [1]): 2
Soybean plant response rating (soybean; [2]): 3
Plant response rating, Soybean (soybean; [3]): 0
Plant response rating, Soybean (soybean; [4]): 0
Plant response rating, Soybean (soybean; [5]): 0
Soybean plant response rating (soybean; [6]): 0
Soybean plant response rating (soybean; [7]): 3
B. signalgrass plant response rating (surinam grass; [1]): 0
B. signalgrass plant response rating (surinam grass; [2]): 0
Plant response rating, B. signalgrass (surinam grass; [3]): 0
Plant response rating, B. signalgrass (surinam grass; [4]): 0
Plant response rating, B. signalgrass (surinam grass; [5]): 7
B. signalgrass plant response rating (surinam grass; [6]): 7
B. signalgrass plant response rating (surinam grass; [7]): 0
B. signalgrass plant response rating (surinam grass; [8]): 2
Corn plant response rating (corn; [1]): 0
Corn plant response rating (corn; [2]): 0
Plant response rating, Corn (corn; [3]): 0
Plant response rating, Corn (corn; [4]): 0
Plant response rating, Corn (corn; [5]): 0
Corn plant response rating (corn; [6]): 0
Corn plant response rating (corn; [7]): 0
Corn plant response rating (corn; [8]): 0
Rape plant response rating (rape; [1]): 0
Rape plant response rating (rape; [2]): 0
Plant response rating, Rape (rape; [3]): 0
Plant response rating, Rape (rape; [4]): 0
Plant response rating, Rape (rape; [5]): 0
Rape plant response rating (rape; [6]): 0
Rape plant response rating (rape; [7]): 0
Rape plant response rating (rape; [8]): 0
S. Flatsedge plant response rating (smallflower flatsedge; [1]): 0
S. Flatsedge plant response rating (smallflower flatsedge; [9]): 0
S. Flatsedge plant response rating (smallflower flatsedge; [11]): 0

Cc1cccc(C)c1-n1c(=O)on(C(=O)N(c2ccc(F)cc2F)C(C)C)c1=O [Compound 28]
Blackgrass plant response rating (blackgrass; [1]): 0
Blackgrass plant response rating (blackgrass; [2]): 6
Blackgrass plant response rating (blackgrass; [12]): 0
Plant response rating, Blackgrass (blackgrass; [3]): 0
Plant response rating, Blackgrass (blackgrass; [4]): 0
Plant response rating, Blackgrass (blackgrass; [5]): 3
Blackgrass plant response rating (blackgrass; [13]): 0
Blackgrass plant response rating (blackgrass; [7]): 2
Velvetleaf plant response rating (velvetleaf; [1]): 0
Velvetleaf plant response rating (velvetleaf; [2]): 0
Velvetleaf plant response rating (velvetleaf; [12]): 0
Plant response rating, Velvetleaf (velvetleaf; [3]): 0
Plant response rating, Velvetleaf (velvetleaf; [4]): 0
Plant response rating, Velvetleaf (velvetleaf; [5]): 0
Velvetleaf plant response rating (velvetleaf; [7]): 0
Morningglory plant response rating (morningglory; [1]): 2
Morningglory plant response rating (morningglory; [2]): 2
Morningglory plant response rating (morningglory; [12]): 0
Plant response rating, Morningglory (morningglory; [3]): 0
Plant response rating, Morningglory (morningglory; [4]): 0
Plant response rating, Morningglory (morningglory; [5]): 0
Morningglory plant response rating (morningglory; [13]): 0
Morningglory plant response rating (morningglory; [7]): 2
Rice plant response rating (rice; [1]): 0
Rice plant response rating (rice; [9]): 0
Rice plant response rating (rice; [10]): 3
Rice plant response rating (rice; [11]): 2
Redroot pigweed plant response rating (pigweed; [1]): 0
Redroot pigweed plant response rating (pigweed; [2]): 2
Redroot pigweed plant response rating (pigweed; [12]): 0
Plant response rating, Redroot pigweed (pigweed; [3]): 0
Plant response rating, Redroot pigweed (pigweed; [4]): 0
Plant response rating, Redroot pigweed (pigweed; [5]): 1
Redroot pigweed plant response rating (pigweed; [13]): 0
Redroot pigweed plant response rating (pigweed; [7]): 1
Barnyardgrass plant response rating (bamyardgrass; [1]): 5
Barnyardgrass plant response rating (bamyardgrass; [9]): 8
Barnyardgrass plant response rating (bamyardgrass; [10]): 10
Barnyardgrass plant response rating (bamyardgrass; [11]): 9
Sugarbeets plant response rating (sugar beet; [1]): 1
Sugarbeets plant response rating (sugar beet; [2]): 1
Sugarbeets plant response rating (sugar beet; [12]): 0
Plant response rating, Sugarbeets (sugar beet; [3]): 0
Plant response rating, Sugarbeets (sugar beet; [4]): 0
Plant response rating, Sugarbeets (sugar beet; [5]): 0
Sugarbeets plant response rating (sugar beet; [7]): 1
Ducksalad plant response rating (duck salad; [1]): 0
Ducksalad plant response rating (duck salad; [9]): 0
Ducksalad plant response rating (duck salad; [10]): 4
Ducksalad plant response rating (duck salad; [11]): 0
Bedstraw plant response rating (bedstraw; [1]): 3
Bedstraw plant response rating (bedstraw; [2]): 8
Bedstraw plant response rating (bedstraw; [12]): 0
Plant response rating, Bedstraw (bedstraw; [3]): 0
Plant response rating, Bedstraw (bedstraw; [4]): 0
Plant response rating, Bedstraw (bedstraw; [5]): 1
Bedstraw plant response rating (bedstraw; [13]): 3
Giant foxtail plant response rating (giant foxtail; [1]): 1
Giant foxtail plant response rating (giant foxtail; [2]): 4
Giant foxtail plant response rating (giant foxtail; [12]): 0
Plant response rating, Giant foxtail (giant foxtail; [3]): 2
Plant response rating, Giant foxtail (giant foxtail; [4]): 5
Plant response rating, Giant foxtail (giant foxtail; [5]): 7
Giant foxtail plant response rating (giant foxtail; [13]): 1
Giant foxtail plant response rating (giant foxtail; [7]): 2
Nutsedge plant response rating (purple nutsedge; [1]): 0
Nutsedge plant response rating (purple nutsedge; [2]): 0
Nutsedge plant response rating (purple nutsedge; [12]): 0
Plant response rating, Nutsedge (purple nutsedge; [3]): 0
Plant response rating, Nutsedge (purple nutsedge; [4]): 0
Plant response rating, Nutsedge (purple nutsedge; [5]): 0
Nutsedge plant response rating (purple nutsedge; [13]): 0
Nutsedge plant response rating (purple nutsedge; [7]): 0
Soybean plant response rating (soybean; [1]): 3
Soybean plant response rating (soybean; [2]): 3
Soybean plant response rating (soybean; [12]): 0
Plant response rating, Soybean (soybean; [3]): 0
Plant response rating, Soybean (soybean; [4]): 0
Plant response rating, Soybean (soybean; [5]): 0
Soybean plant response rating (soybean; [7]): 3
B. signalgrass plant response rating (surinam grass; [1]): 0
B. signalgrass plant response rating (surinam grass; [2]): 0
B. signalgrass plant response rating (surinam grass; [12]): 0
Plant response rating, B. signalgrass (surinam grass; [3]): 0
Plant response rating, B. signalgrass (surinam grass; [4]): 0
Plant response rating, B. signalgrass (surinam grass; [5]): 0
B. signalgrass plant response rating (surinam grass; [13]): 0
B. signalgrass plant response rating (surinam grass; [7]): 0
Corn plant response rating (corn; [1]): 0
Corn plant response rating (corn; [2]): 0
Corn plant response rating (corn; [12]): 0
Plant response rating, Corn (corn; [3]): 0
Plant response rating, Corn (corn; [4]): 0
Plant response rating, Corn (corn; [5]): 0
Corn plant response rating (corn; [13]): 0
Corn plant response rating (corn; [7]): 0
Rape plant response rating (rape; [1]): 0
Rape plant response rating (rape; [2]): 0
Rape plant response rating (rape; [12]): 0
Plant response rating, Rape (rape; [3]): 0
Plant response rating, Rape (rape; [4]): 0
Plant response rating, Rape (rape; [5]): 0
Rape plant response rating (rape; [13]): 0
Rape plant response rating (rape; [7]): 0
S. Flatsedge plant response rating (smallflower flatsedge; [1]): 0
S. Flatsedge plant response rating (smallflower flatsedge; [9]): 0
S. Flatsedge plant response rating (smallflower flatsedge; [11]): 0
